Test results: patent EP1383793B1 (priority 2000, dated 2001)
Positions of bridges follow the written chain, without caps; N, C: chain ends. Residues, ends and D or L forms follow the SMILES beside them. *: point of attachment. Biotin = O=C1N[C@H]2[C@H](CS[C@H]2CCCCC(=O)*)N1

What was measured:
IGF-1R [1] = biological target: T1, IGF-1R (Homo sapiens, UniProt P08069); assay: IGF-1R peptide assay, competition dissociation of 20E2; format: binding; conditions: peptides 100 µM, IGF-1 30 µM
T1 construct: Soluble IGF-1R was obtained from R&D Systems; purchased R&D Systems 391-GR/CF
Protocol: • a. Preparation of the Assay Mix. […] This mixture was allowed to pre-incubate. • b. 20 µl of Competitor and Buffer were added to a 96-well microtiter plate (Costar Cat. #3912). • c. […] After the original 99 repeat readings were taken, periodic readings were taken until equilibrium had been established. NOTE: Different conditions can be used for these experiments. For example, a 1.1X concentration of assay mix can be initially made. Then first add 10 µl of Competitor and Buffer to the microtiter plate followed by 90 µl of the Assay Mix. • f.

Insulin receptor = biological target: T2, Insulin receptor (Homo sapiens, UniProt P06213); assay: BIAcore competition: IR pre-incubated with test substance, injected over immobilised insulin; format: binding; conditions: peptide about 40 µM, IR 450 nM; IR alone 128 RU
T2 construct: composed of the extracellular domains of both the α and β chains of the natural receptor; made in house; background b13 names human embryonic kidney 293 cells for the Bass et al. construct
Protocol: Flowcell-1 was used for background binding to correct for any non-specific binding. […] The surface was regenerated with 25 mM NaOH. […] Thus, the system was validated for competition studies. […] The amino acid sequences referred to in the tables are identified in Figures 47 and 48, except the 447 and 2A9 sequences, which are shown below. TABLE 9: BIAcore Results-Fusion Proteins Compete for Binding to IR

IR = biological target: T3, IR (Homo sapiens, UniProt P06213); assay: Phage ELISA, binding of phage-displayed peptides to IR; conditions: 405 nm
T3 construct: composed of the extracellular domains of both the α and β chains of the natural receptor; made in house; background b13 names human embryonic kidney 293 cells for the Bass et al. construct

[2] = Precipitate in diluted peptide stock prior to adding to the fat cell assay; solubility under assay conditions; format: physicochemical; conditions: diluted stock prior to adding to assay
IGF-1R [3] = biological target: T1, IGF-1R; assay: Phage ELISA, binding of phage-displayed peptides to IGF-1R; conditions: 405 nm
Protocol: Figures 1A-10G. Amino acid sequences comprising the motif of Formulas 1 through 10. […] One hundred microliters of this solution was added to an appropriate number of wells in a 96-well microtiter plate (MaxiSorp plates, Nunc) and incubated overnight at 4°C. […] Subsequent steps are the same for pooled and clonal phage. […] Phage resuspended in MPBS were added to duplicate wells (100 µl/well) and incubated at RT for 1 h. […] Incubation was for 1 h at RT, followed by PBS washes as described. […] Phage ELISA. […] The wells were blocked with 200 µl of MPBS for 1.5 h at RT. Phage were added at 100 µl per well. Peptides were added as noted below and allowed to incubate at RT for 3 h. The plates were washed 3 times with PBST. A solution of 1:3000 diluted HRP:Anti-M13 conjugate at 100 µl per well of was added for 1 h. Following a repeat of the washing, 100 µl of ABTS was added for 15-30 min. […] Phage ELISA. […] Phage were added at 100 µl per well. Peptides were added as noted below and allowed to incubate at RT for 3 h. The plates were washed 3X with PBST. A solution of 1:3000 diluted HRP:Anti-M13 Conjugate at 100 µl per well of was added for 1 h. Following a repeat of the washing, 100 µl of ABTS was added for 15-30 min. The OD405 was measured using a SpectraMax 340 Microplate Spectrophotometer.

[4] = biological target: T4, purified insulin receptor (Homo sapiens, UniProt P06213); assay: Holoenzyme phosphorylation assay (IR autophosphorylation, Western blot); format: biochemical
T4 construct: host or cells: 'Wheat Germ Agglutinin Expression System' (so in the source)
Protocol: Alternatively, IR autophosphorylation was determined using a holoenzyme phosphorylation assay. […] The reaction was stopped by adding 50 µl of gel loading buffer containing β-mercaptoethanol (Bio-Rad Laboratories, Inc., Hercules, CA). The samples were run on 4-12% SDS-polyacrylamide gels. Western Blot analysis was performed by transferring the proteins onto nitrocellulose membrane. The membrane was blocked in PBS containing 3% milk overnight. The membrane was incubated with anti-phosphotyrosine 4G10 HRP labeled antibody (Upstate Biotechnology) for 2 h. Protein bands were visualized using SuperSignal West Dura Extended Duration Substrate Chemiluminescence Detection System (Pierce Chemical Co.).

adipocytes = assay: 3H-glucose uptake into adipocytes (fat cell assay, FFC); format: cell-based, Mouse; conditions: Subjective ranking; basal and sub maximal insulin; includes series A

T1 sequence (P08069 31-736 limits assumed): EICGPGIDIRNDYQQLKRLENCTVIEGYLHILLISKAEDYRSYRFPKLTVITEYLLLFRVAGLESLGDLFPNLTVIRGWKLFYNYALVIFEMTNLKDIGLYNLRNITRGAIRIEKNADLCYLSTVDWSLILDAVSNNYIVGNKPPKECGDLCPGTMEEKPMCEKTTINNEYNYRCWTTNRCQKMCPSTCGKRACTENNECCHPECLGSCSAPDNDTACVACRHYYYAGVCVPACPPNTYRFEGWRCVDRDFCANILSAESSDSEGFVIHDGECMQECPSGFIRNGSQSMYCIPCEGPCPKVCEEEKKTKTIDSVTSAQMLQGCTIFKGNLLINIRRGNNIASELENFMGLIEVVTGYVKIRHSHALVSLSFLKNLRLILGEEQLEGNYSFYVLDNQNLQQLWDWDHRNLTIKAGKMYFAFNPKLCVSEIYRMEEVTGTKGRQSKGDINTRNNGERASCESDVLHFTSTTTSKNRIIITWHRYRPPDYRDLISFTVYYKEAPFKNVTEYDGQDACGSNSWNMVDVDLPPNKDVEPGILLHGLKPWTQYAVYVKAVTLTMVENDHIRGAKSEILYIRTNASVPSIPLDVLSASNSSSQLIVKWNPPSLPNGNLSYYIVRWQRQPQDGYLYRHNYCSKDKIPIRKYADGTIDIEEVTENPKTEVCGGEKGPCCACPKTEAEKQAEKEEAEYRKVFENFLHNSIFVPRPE
T1 sequence (P08069 741-935 limits assumed): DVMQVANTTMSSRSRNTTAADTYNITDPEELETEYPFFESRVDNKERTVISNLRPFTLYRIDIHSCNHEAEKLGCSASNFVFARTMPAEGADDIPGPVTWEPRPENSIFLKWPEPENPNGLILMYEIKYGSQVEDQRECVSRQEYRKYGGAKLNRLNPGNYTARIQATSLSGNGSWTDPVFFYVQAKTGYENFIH
T4 sequence (P06213 28-758 limits assumed): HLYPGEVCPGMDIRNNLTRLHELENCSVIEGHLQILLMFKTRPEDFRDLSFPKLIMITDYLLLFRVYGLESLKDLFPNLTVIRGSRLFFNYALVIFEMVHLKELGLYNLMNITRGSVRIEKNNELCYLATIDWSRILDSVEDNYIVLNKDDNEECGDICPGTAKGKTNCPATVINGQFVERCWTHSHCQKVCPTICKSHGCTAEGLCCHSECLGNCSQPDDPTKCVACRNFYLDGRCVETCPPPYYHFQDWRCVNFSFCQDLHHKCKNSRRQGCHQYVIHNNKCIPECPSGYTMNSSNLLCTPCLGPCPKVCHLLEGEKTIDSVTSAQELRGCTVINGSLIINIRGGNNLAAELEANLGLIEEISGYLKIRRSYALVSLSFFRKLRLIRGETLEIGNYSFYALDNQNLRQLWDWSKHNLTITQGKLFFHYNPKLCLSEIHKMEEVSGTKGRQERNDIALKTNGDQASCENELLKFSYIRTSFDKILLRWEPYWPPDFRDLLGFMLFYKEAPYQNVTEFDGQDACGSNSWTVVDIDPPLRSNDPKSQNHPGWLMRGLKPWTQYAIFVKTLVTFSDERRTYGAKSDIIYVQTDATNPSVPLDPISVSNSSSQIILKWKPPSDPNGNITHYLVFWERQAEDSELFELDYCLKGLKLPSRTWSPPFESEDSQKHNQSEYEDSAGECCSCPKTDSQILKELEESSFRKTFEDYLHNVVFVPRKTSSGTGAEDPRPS
T4 sequence (P06213 763-1382 limits assumed): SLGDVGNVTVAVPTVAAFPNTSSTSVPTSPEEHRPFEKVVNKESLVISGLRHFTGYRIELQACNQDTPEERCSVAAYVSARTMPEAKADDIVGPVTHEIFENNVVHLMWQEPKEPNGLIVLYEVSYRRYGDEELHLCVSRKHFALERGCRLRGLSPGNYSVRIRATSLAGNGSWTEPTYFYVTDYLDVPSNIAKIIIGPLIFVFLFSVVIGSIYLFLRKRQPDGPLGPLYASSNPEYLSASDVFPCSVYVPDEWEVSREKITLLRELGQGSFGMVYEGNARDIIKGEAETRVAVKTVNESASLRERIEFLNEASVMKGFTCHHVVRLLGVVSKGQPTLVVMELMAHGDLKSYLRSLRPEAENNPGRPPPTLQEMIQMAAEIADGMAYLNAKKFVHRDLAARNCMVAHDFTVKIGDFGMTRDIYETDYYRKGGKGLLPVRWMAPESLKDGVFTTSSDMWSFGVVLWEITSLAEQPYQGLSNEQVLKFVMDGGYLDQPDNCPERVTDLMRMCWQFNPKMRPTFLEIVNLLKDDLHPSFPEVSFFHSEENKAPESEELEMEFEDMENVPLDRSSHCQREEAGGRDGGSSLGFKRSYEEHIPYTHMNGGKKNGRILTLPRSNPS
T3 sequence (P06213 28-758 limits assumed): as the sequence (P06213 28-758 limits assumed) above
T3 sequence (P06213 763-956 limits assumed): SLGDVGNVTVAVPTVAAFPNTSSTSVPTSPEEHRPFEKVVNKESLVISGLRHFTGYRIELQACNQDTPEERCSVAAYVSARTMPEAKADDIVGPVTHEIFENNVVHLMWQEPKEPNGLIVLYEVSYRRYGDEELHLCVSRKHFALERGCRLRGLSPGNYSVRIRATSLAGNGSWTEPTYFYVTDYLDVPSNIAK
T2 sequence (P06213 28-758 limits assumed): as the sequence (P06213 28-758 limits assumed) above
T2 sequence (P06213 763-956 limits assumed): as the sequence (P06213 763-956 limits assumed) above

effect on dissociation rate of 20E2 from IGF-1R (IGF-1R [1]): much slower dissociation rate | Result (RUs) (Insulin receptor): 41.6 RUs | Absorbance Values IR (IR): 1.42 | Comments (precipitation) [2]: Precipitates | Absorbance Values sIGF-1R (IGF-1R [3]): 2.19 | Autophosph. Blot [4]: 0
Structure (SMILES): CC(C)C[C@H](NC(=O)[C@H](Cc1c[nH]c2ccccc12)NC(=O)[C@@H](N)CCCCN)C(=O)N[C@@H](CC(=O)O)C(=O)N[C@@H](CCC(N)=O)C(=O)N[C@@H](CCC(=O)O)C(=O)N[C@@H](Cc1c[nH]c2ccccc12)C(=O)N[C@@H](C)C(=O)N[C@@H](Cc1c[nH]c2ccccc12)C(=O)N[C@H](C(=O)N[C@@H](CCC(N)=O)C(=O)N[C@H]1CSSC[C@@H](C(=O)N2CCC[C@H]2C(=O)N[C@@H](CO)C(=O)N[C@@H](CCCCN)C(=O)N[C@@H](CCCCNC(=O)CCCC[C@@H]2SC[C@@H]3NC(=O)N[C@@H]32)C(N)=O)NC(=O)CNC(=O)[C@H](CCCNC(=N)N)NC(=O)CNC(=O)[C@H](Cc2ccc(O)cc2)NC(=O)[C@H](C(C)C)NC(=O)[C@H](CCC(=O)O)NC1=O)C(C)C [Clone D8] (H-KWLDQEWAWVQCEVYGRGCPSKK(Biotin)-NH2; disulfide 12-19 (inferred); N-terminus assumed)
Resp. (adipocytes): -1
